Laboratory results taken from publication PMC12586182 (Frontiers in Oncology, 2025).

Experiments:
CDK2/CycA2 = biological target: T1, CDK2/CycA2 (Homo sapiens, UniProt P24941); test: Kinase panel profiling at 1 µmol/L (mobility shift assay, Carna); format: biochemical; conditions: 1 µmol/L of BTK inhibitor
T1 construct: purchased Carna Biosciences

FGR = biological target: T2, FGR (Homo sapiens, UniProt P09769); test: as above; format: biochemical; conditions: 1 µmol/L of BTK inhibitor
T2 construct: purchased Carna Biosciences

NIM1K = biological target: T3, NIM1K (Homo sapiens, UniProt Q8IY84); test: as above; format: biochemical; conditions: 1 µmol/L of BTK inhibitor
T3 construct: purchased Carna Biosciences

CaMK1δ = biological target: T4, CaMK1δ (Homo sapiens, UniProt Q8IU85); test: as above; format: biochemical; conditions: 1 µmol/L of BTK inhibitor
T4 construct: purchased Carna Biosciences

TEC = biological target: T5, TEC (Homo sapiens, UniProt P42680); test: Kinase enzyme activity assay (mobility shift assay, Carna); conditions: for Percentage inhibition of kinase enzyme activity: TEC, 1 µmol/L of BTK inhibitor
T5 sequence (P42680 1-631): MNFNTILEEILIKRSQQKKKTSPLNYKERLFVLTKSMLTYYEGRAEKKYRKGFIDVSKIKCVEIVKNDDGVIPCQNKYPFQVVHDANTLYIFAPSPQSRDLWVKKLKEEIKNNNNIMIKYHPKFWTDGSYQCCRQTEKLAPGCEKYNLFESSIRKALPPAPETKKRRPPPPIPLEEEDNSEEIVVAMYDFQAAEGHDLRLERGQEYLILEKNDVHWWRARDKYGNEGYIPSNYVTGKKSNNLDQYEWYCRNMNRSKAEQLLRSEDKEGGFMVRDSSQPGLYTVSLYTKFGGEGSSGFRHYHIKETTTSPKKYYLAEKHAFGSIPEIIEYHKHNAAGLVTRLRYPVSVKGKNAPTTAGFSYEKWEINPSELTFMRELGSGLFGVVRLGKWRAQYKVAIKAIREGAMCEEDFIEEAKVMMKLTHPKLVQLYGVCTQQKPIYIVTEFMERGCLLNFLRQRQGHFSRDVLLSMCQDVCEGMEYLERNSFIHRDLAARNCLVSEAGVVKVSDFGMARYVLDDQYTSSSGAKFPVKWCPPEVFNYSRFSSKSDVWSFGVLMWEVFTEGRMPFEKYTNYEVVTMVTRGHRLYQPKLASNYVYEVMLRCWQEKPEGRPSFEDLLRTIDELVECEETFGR

RON = biological target: T6, RON (Homo sapiens, UniProt Q04912); test: Kinase panel profiling at 1 µmol/L (mobility shift assay, Carna); format: biochemical; conditions: 1 µmol/L of BTK inhibitor
T6 construct: purchased Carna Biosciences

FLT3 = biological target: T7, FLT3 (Homo sapiens, UniProt P36888); test: as above; format: biochemical; conditions: 1 µmol/L of BTK inhibitor
T7 construct: purchased Carna Biosciences
T7 sequence (P36888 27-993): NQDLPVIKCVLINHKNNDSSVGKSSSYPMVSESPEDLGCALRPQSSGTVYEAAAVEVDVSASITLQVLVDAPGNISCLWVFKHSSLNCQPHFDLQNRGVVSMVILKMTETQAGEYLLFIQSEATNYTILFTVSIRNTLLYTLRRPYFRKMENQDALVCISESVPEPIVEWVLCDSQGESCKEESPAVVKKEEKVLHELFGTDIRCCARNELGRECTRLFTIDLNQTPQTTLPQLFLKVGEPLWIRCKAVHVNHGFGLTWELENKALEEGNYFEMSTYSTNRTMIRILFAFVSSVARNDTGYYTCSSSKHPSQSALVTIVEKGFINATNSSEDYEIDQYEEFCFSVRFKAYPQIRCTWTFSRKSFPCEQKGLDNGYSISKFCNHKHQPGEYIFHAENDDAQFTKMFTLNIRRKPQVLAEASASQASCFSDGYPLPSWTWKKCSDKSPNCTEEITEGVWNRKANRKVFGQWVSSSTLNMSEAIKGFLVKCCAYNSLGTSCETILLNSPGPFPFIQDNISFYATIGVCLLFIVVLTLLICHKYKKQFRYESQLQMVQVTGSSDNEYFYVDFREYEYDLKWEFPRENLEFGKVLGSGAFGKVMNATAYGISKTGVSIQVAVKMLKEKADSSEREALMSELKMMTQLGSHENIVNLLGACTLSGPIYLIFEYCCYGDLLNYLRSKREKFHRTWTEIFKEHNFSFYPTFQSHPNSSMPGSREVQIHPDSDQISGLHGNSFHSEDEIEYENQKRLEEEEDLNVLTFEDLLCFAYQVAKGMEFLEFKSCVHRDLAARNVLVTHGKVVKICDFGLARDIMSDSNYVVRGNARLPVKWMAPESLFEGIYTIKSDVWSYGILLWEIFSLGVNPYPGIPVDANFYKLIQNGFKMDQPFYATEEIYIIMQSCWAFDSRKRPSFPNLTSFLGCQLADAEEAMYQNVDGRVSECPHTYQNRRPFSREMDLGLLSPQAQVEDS

EPHA8 = biological target: T8, EPHA8 (Homo sapiens, UniProt P29322); test: as above; format: biochemical; conditions: 1 µmol/L of BTK inhibitor
T8 construct: purchased Carna Biosciences
T8 sequence (P29322 28-1005): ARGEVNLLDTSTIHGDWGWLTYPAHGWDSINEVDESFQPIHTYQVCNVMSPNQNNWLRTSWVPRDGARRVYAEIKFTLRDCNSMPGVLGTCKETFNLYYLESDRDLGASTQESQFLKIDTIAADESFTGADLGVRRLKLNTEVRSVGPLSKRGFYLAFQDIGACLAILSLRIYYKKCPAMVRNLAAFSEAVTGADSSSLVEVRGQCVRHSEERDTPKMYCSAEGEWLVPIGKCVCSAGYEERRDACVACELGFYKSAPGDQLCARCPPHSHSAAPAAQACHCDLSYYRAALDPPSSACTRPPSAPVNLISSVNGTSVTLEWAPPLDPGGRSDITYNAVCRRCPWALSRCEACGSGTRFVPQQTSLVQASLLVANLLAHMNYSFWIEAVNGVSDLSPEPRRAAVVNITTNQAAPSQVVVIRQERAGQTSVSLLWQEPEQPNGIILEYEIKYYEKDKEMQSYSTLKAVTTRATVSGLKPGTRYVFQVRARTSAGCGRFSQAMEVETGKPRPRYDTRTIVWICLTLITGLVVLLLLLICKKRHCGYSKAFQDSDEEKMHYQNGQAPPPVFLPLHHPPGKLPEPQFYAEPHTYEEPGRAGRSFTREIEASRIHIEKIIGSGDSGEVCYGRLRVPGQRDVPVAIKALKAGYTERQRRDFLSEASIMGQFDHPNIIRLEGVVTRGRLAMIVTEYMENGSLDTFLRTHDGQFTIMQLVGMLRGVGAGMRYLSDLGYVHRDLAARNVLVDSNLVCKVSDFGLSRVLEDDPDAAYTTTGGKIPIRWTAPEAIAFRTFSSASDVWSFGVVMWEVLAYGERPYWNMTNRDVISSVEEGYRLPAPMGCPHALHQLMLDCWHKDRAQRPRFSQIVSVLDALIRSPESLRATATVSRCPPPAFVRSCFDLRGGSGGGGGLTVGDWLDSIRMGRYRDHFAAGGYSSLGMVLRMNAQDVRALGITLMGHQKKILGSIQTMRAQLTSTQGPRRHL

T6 sequence (Q04912 25-1400): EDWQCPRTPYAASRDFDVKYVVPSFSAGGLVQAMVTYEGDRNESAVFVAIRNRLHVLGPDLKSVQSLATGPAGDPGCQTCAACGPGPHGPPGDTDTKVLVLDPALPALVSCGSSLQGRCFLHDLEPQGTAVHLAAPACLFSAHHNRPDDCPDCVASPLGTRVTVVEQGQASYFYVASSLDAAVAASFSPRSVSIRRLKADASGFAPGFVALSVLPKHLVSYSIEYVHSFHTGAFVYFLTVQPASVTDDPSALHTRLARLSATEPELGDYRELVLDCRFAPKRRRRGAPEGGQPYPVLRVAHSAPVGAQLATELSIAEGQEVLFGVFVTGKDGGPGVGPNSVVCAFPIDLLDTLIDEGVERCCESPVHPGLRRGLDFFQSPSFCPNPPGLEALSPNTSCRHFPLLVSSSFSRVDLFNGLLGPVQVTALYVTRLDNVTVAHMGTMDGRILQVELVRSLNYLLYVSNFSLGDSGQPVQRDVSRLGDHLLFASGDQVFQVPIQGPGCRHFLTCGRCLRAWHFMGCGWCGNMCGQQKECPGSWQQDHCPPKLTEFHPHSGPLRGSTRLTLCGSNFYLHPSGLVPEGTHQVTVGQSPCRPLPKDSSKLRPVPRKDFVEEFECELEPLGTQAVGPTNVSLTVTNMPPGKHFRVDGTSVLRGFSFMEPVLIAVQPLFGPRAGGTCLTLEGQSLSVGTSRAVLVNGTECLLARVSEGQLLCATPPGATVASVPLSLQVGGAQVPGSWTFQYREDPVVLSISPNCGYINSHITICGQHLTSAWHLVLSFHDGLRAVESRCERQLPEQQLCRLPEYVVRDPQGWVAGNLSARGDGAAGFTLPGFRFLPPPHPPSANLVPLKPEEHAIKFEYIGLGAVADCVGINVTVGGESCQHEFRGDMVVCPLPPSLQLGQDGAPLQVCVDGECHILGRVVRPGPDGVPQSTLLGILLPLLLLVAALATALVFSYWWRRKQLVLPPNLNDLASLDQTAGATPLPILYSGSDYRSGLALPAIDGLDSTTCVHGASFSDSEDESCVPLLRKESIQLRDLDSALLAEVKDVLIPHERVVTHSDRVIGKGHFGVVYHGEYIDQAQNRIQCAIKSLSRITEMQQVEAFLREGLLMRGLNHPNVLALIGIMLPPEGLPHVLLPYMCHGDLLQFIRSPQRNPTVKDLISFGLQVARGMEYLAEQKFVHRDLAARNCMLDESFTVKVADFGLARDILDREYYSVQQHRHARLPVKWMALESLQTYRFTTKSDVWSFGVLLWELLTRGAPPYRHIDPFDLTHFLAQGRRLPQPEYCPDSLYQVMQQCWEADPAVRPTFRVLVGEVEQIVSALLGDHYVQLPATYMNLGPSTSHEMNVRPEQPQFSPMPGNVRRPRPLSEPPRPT
T4 sequence (Q8IU85 whole entry): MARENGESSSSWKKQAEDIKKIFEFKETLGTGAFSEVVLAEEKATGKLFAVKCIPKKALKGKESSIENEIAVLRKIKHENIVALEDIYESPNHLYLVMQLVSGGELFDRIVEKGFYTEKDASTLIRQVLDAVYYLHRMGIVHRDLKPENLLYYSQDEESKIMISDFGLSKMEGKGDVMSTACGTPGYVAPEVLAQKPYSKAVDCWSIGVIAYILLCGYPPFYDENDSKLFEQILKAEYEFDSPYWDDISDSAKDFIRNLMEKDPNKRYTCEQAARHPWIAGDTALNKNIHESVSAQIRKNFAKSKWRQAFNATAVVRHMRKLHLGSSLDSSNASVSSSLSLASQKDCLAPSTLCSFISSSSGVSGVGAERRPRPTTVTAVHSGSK
T3 sequence (Q8IY84 whole entry): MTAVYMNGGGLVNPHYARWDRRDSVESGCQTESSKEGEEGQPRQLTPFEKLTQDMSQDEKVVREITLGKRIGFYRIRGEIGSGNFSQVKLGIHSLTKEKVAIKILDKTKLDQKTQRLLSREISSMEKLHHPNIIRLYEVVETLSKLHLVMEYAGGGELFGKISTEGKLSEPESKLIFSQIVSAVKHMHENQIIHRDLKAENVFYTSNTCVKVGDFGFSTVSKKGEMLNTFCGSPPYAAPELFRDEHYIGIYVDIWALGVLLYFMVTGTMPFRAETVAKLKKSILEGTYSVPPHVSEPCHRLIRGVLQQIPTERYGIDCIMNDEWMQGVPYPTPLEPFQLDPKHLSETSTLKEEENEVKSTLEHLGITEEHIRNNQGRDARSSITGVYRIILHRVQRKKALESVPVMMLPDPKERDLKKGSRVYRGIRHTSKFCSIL
T2 sequence (P09769 whole entry): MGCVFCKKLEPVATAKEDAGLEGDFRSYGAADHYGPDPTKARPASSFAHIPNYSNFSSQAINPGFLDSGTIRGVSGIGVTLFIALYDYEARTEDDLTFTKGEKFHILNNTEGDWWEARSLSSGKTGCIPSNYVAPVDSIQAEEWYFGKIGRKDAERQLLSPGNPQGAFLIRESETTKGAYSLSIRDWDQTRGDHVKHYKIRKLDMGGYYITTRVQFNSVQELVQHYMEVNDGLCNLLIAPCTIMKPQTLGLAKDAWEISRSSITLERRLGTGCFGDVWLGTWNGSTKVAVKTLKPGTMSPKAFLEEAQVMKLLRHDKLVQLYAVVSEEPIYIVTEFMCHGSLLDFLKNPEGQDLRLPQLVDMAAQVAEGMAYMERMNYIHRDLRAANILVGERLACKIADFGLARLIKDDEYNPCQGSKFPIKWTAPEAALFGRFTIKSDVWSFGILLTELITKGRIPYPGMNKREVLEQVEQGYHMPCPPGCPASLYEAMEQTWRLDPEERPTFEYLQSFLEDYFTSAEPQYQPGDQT

Row | SMILES | Percentage inhibition of kinase enzyme activity (CDK2/CycA2) [%] | Percentage inhibition of kinase enzyme activity (FGR) [%] | Percentage inhibition of kinase enzyme activity (NIM1K) [%] | Percentage inhibition of kinase enzyme activity (CaMK1δ) [%] | Percentage inhibition of kinase enzyme activity (TEC) [%] | Percentage inhibition of kinase enzyme activity (RON) [%] | Percentage inhibition of kinase enzyme activity (FLT3) [%] | Percentage inhibition of kinase enzyme activity (EPHA8) [%] | inhibition at 1 µM (TEC; read-out: Inhibition of TEC) [%] | IC50 (TEC) [nM]
1 | CC#CC(=O)N1CCC[C@H]1c1nc(-c2ccc(C(=O)Nc3ccccn3)cc2)c2c(N)nccn12 [acalabrutinib] | -5.19 | 2.91 | -7.33 | -5.01 | 95.77 | 7.68 | 3.27 | 6.51 |  | 
2 | COc1ccc(F)cc1C(=O)NCc1ccc(-c2nn([C@@H](C)C(F)(F)F)c(N)c2C(N)=O)cc1 [pirtobrutinib] | -4.56 | 18.17 | -1.08 | 2.74 | 87.84 | 6.55 | -4.18 | -19.48 | > 75 | 
3 | C=CC(=O)N1CCC[C@@H](n2nc(-c3ccc(Oc4ccccc4)cc3)c3c(N)ncnc32)C1 [ibrutinib] | -11.88 | 99.02 | -2.33 | 4.85 | 91.92 | 6.98 | 62.77 | 54.68 |  | 
4 | O=C(c1ccc(Oc2ccccc2)cc1Cl)c1c[nH]c2ncnc(N[C@@H]3CC[C@@H](CO)OC3)c12 [nemtabrutinib] | -1.69 | 90.23 | -2.21 | 9.32 | 98.70 | 33.63 | 99.30 | 50.84 |  | 0.75
5 | C=CC(=O)N1CCC([C@@H]2CCNc3c(C(N)=O)c(-c4ccc(Oc5ccccc5)cc4)nn32)CC1 [zanubrutinib] |  | 2.22 |  |  |  |  | 6.34 | -2.10 |  | 
